According to patent US8163935B2, “Fused heterocyclic compounds” (Takeda Pharmaceutical Company Limited, priority 2005, dated 2012):
Structures can show the parent of a compound that is named as a salt.

Columns and labels:
human CRF receptor = molecular target: T1, human CRF receptor (Homo sapiens, UniProt P34998); assay: Corticotropin-releasing factor (CRF) receptor binding experiment with 125I-CRF; settings: human CRF receptor expressing CHO cellular membrane fraction; for inhibition at 1 µM: 1000 nM test compound, 50 pM 125I-CRF, read-out: Binding inhibitory rate (%) 1000 nM; for IC50: 125I-CRF, GraphPad Prism
T1 construct: expressed in transfected cells; host or cells: CHO cells (membrane fraction)
T1 sequence (P34998 24-415): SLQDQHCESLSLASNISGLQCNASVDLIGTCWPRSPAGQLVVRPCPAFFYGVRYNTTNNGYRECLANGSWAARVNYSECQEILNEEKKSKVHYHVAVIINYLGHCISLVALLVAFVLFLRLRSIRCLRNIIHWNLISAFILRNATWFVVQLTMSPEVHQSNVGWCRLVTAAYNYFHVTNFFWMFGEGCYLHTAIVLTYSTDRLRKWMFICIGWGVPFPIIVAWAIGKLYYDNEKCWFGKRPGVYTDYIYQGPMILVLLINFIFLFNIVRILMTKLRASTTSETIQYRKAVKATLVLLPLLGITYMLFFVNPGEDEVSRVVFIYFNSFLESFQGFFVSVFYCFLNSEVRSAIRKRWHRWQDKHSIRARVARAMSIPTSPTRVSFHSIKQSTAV
Method: A receptor binding experiment was carried out using a human CRF receptor expressing CHO cellular membrane fraction and ovine CRF, [^125I]-tyr^0 (^125I-CRF). 1000 nM of a test compound was incubated with 1 μg of human CRF receptor expressing CHO cellular membrane fraction and 50 pM of ^125I-CRF in a binding assay buffer (50 mM Tris-HCl, 5 mM EDTA, 10 mM MgCl2, 0.05% CHAPS, 0.1% BSA, 0.5 mM PMSF, 0.1 μg/ml pepstatin, 20 μg/ml leupeptin, pH 7.5). In addition, for measuring nonspecific binding (NSB), 0.1 μM unlabelled human Urocortin was incubated with 1 μg of human CRF receptor expressing CHO cellular membrane fraction and 50 pM of ^125I-CRF in a binding assay buffer. After a binding reaction was carried out at room temperature for 1.5 hour, the membrane was entrapped on a glass filter (UniFilter plate GF-C/Perkin Elmer) by suction filtration using a cell harvester (Perkin Elmer), and washed with ice-cooled 50 mM Tris-HCl (pH 7.5). After drying the glass filter, a liquid scintillation cocktail (Microscinti 0, Perkin Elmer) was added, and the radioactivity of ^125I-CRF remaining on a glass filter was measured using Topcount (Perkin Elmer).
(TB−SB)/(TB−NSB)×100 (SB: radioactivity when a compound is added, TB: maximum binding radioactivity, NSB: nonspecific binding radioactivity) was calculated to obtain a binding inhibitory rate under the presence of 1,000 nM of each test substances. The IC50 values were calculated by using GraphPad Prism software.

Compound	inhibition at 1 µM (human CRF receptor)	IC50 (human CRF receptor)	melting point
CCCC(CCC)c1cccc2nc(Nc3c(C)cc(Br)cc3OC)n(C)c12 [Example 1, N-(4-Bromo-2-methoxy-6-methylphenyl)-1-methyl-7-(1-propylbutyl)-1H-benzimidazol-2-amine Hydrochloride]	> 80%	–	–
CCCC(CC)c1nccc2nc(Nc3c(C)cc(Br)cc3OC)n(C)c12 (stereo not drawn) [Example 9, N-(4-Bromo-2-methoxy-6-methylphenyl)-4-(1-ethylbutyl)-3-methyl-3H-imidazo[4,5-c]pyridin-2-amine]	> 80%	–	–
CCc1ccccc1-c1cccc2nc(Nc3c(C)cc(Cl)cc3OC)n(C)c12 [Example 15, N-(4-Chloro-2-methoxy-6-methylphenyl)-7-(2-ethylphenyl)-1-methyl-1H-benzimidazol-2-amine]	–	10 to 50 nM	–
CNCc1ccccc1-c1cccc2nc(Nc3c(C)cc(Cl)cc3OC)n(C)c12 [Example 64, N-(4-Chloro-2-methoxy-6-methylphenyl)-1-methyl-7-{2-[(methylamino)methyl]phenyl}-1H-benzimidazol-2-amine]	> 80%	–	–
CCc1cc(CC)n(-c2cccc3nc(Nc4c(C)cc(Br)cc4OC)n(C)c23)n1 [Example 66, N-(4-Bromo-2-methoxy-6-methylphenyl)-7-(3,5-diethyl-1H-pyrazol-1-yl)-1-methyl-1H-benzimidazol-2-amine]	–	10 to 50 nM	–
COc1cc(Br)cc(C)c1Nc1nc2cccc(-n3c(C)ccc3C)c2n1C [Example 69, N-(4-Bromo-2-methoxy-6-methylphenyl)-7-(2,5-dimethyl-1H-pyrrol-1-yl)-1-methyl-1H-benzimidazol-2-amine]	> 80%	–	–
CCC(CC)c1ccc(Cl)c2nc(Nc3c(C)cc(Br)cc3OC)n(C)c12 [Example 77, N-(4-Bromo-2-methoxy-6-methylphenyl)-4-chloro-7-(1-ethylpropyl)-1-methyl-1H-benzimidazol-2-amine]	> 80%	10 to 50 nM	218 to 220 °C
CCC(CC)c1ccc(Cl)c2nc(Nc3ccc(Cl)cc3Br)n(C)c12 [Example 84, N-(2-Bromo-4-chlorophenyl)-4-chloro-7-(1-ethylpropyl)-1-methyl-1H-benzimidazol-2-amine]	> 80%	–	136 to 138 °C
CCC(CC)c1ccc(C)c2nc(Nc3c(C)cc(Cl)cc3OC)n(C)c12 [Example 101, N-(4-Chloro-2-methoxy-6-methylphenyl)-7-(1-ethylpropyl)-1,4-dimethyl-1H-benzimidazol-2-amine]	> 80%	< 10 nM	–
CCC(CC)c1ccc(Cl)c2nc(Nc3c(C)cc(Cl)cc3OC)n(CCO)c12 [Example 103, 2-[4-Chloro-2-[(4-chloro-2-methoxy-6-methylphenyl)amino]-7-(1-ethylpropyl)-1H-benzimidazol-1-yl]ethanol]	> 80%	–	–
CCC(CC)c1ccc(OC)c2nc(Oc3c(C)cc(Cl)cc3Cl)n(C)c12 [Example 145, 2-(2,4-Dichloro-6-methylphenoxy)-7-(1-ethylpropyl)-4-methoxy-1-methyl-1H-benzimidazole]	–	< 10 nM	130 to 131 °C
CCC(CC)c1ccc(C(F)(F)F)c2nc(Nc3c(C)cc(Cl)cc3OC)n(C)c12 [Example 158, N-(4-Chloro-2-methoxy-6-methylphenyl)-7-(1-ethylpropyl)-1-methyl-4-(trifluoromethyl)-1H-benzimidazol-2-amine]	–	–	187 to 188 °C
CCC(CC)c1ccc(C(F)(F)F)c2nc(Nc3ccc(Cl)cc3Br)n(C)c12 [Example 159, N-(2-Bromo-4-chlorophenyl)-7-(1-ethylpropyl)-1-methyl-4-(trifluoromethyl)-1H-benzimidazol-2-amine]	–	–	151 to 152 °C
CCC(CC)c1ccc(C(F)(F)F)c2nc(Oc3c(C)cc(Cl)cc3Cl)n(C)c12 [Example 160, 2-(2,4-Dichloro-6-methylphenoxy)-7-(1-ethylpropyl)-1-methyl-4-(trifluoromethyl)-1H-benzimidazole]	–	–	149 to 151 °C
CCC(CC)c1ccc(C(F)(F)F)c2nc(Oc3ccc(Cl)cc3Br)n(C)c12 [Example 161, 2-(2-Bromo-4-chlorophenoxy)-7-(1-ethylpropyl)-1-methyl-4-(trifluoromethyl)-1H-benzimidazole]	–	–	119 to 120 °C
CCc1cc(CC)n(-c2cccc3nc(Oc4c(C)cc(Cl)cc4Cl)n(C)c23)n1 [Example 162, 2-(2,4-Dichloro-6-methylphenoxy)-7-(3,5-diethyl-1H-pyrazol-1-yl)-1-methyl-1H-benzimidazole]	–	–	115 to 119 °C
